Here are results for four compounds from US20210290527A1, “Compositions and Methods for Treatment of Ocular Conditions” (EyeGate Pharmaceuticals, Inc., priority 2020, published 2021).

Molecules are shown by their SMILES. Read-outs that look alike come from different tables or passages of the source.

The procedure of data set [1]: (§1) RI was measured with a refractometer and pH was measured with a pH meter.
Data set [2] can be described thus: pH measured with a pH meter. Format: physicochemical. The protocol:
as §1

For data set [3] the following is noted: in water; cited from earlier work.
A short description of data set [4]: Rheological testing, parallel plate rheometer: viscosity and shear-thinning. Format: physicochemical. The protocol: Thiol-modified carboxymethyl HA (CMHA-S) was synthesized as described in Lawyer et al. and Wendling et al., with a thiol modification of 0.1, 0.2, 0.4, or 0.7 μmol thiol/mg. Hydrogels were created by dissolving CMHA-S in phosphate-buffered saline (PBS; pH 7.4). The CMHA-S was disulfide crosslinked under continuous mixing with the addition of sodium hypochlorite. Rheological testing was performed using a parallel plate format rheometer with a 25 mm-diameter stainless steel geometry. Samples (5-6 ml) of hydrogel were placed in a 35 mm Petri dish, and the geometry was lowered to a gap of 5 mm. To determine viscosity and shear-thinning, the shear rate was varied from 0.1 to 10 Hz. A decreasing viscosity as shear rate increases indicates shear-thinning behavior.
Viscosity was determined as described in Example 1.

The nature of data set [5]: Release of therapeutic from hydrogel in medi-dialysis chamber into PBS. Conditions: therapeutic at 1 mg/ml, over 24 hours, dialysis chamber MWCO 50 kDa, UV spectroscopy. It is filed as physicochemical. The protocol: FIGS. 3A, 3B, 3C, and 3D show the release of therapeutic from hydrogel (“OBG”; blue circles on the graphs) or PBS (green circles on the graphs) into PBS in a medi-dialysis chamber (MWCO, 50 kDa) over time.
The release was monitored over 24 hours and compared to release of the therapeutic from solution in PBS. For this assessment, a 0.5 ml sample of hydrogel plus therapeutic or PBS plus therapeutic was placed into a medi-dialysis chamber, and the chamber was placed in a beaker containing 100 ml of PBS. The remaining amount of therapeutic in the dialysis chamber was monitored using UV spectroscopy at various time points.

The mark [6] stands for this setting: drug incorporated at 1 mg/ml in CMHA-S hydrogel.
Setting [7] is: PredA 1 mg/ml in CMHA-S hydrogel.
Setting [8] is: PredA 5 mg/ml in CMHA-S hydrogel.
Where [9] appears, read: PredA 10 mg/ml in CMHA-S hydrogel.
Where [10] appears, read: LE 2.5 mg/ml in CMHA-S hydrogel.

In data set [1] (setting [6]), `CN(C)CC/C=C1/c2ccccc2COc2ccc(CC(=O)O)cc21` [Olopatadine, olopatadine] had an RI of 1.3353. In data set [2] (setting [6]), this compound yielded a pH of 7.3. Besides, the water solubility entry in data set [3] is reported as “about 0.03 mg/ml”. Also, the “Viscosity at 2.5 Hz” value in data set [4] (setting [6]) is on record as 1.1 Pa · s.
As for `CC(=O)OCC(=O)[C@@]1(O)CC[C@H]2[C@@H]3CCC4=CC(=O)C=C[C@]4(C)[C@H]3[C@@H](O)C[C@@]21C` [PredA, prednisolone acetate], the figures for the pH in data set [2] (setting [7]), in data set [2] (setting [8]) and in data set [2] (setting [9]) were 7.09, 7.13 and 7.17, respectively. The “Viscosity at 2.5 Hz” value in data set [4] (setting [7]) came to 2.0 Pa · s; in data set [4] (setting [8]), 2.7 Pa · s; in data set [4] (setting [9]), 3.0 Pa · s.
Consider `C[C@@H]1C[C@H]2[C@@H]3CCC4=CC(=O)C=C[C@]4(C)[C@@]3(F)[C@@H](O)C[C@]2(C)[C@@]1(O)C(=O)CO` [Dexamethasone, dexamethasone], for which the water solubility entry in data set [3] is “less than 0.09 mg/ml”.
`CCOC(=O)O[C@]1(C(=O)OCCl)CC[C@H]2[C@@H]3CCC4=CC(=O)C=C[C@]4(C)[C@H]3[C@@H](O)C[C@@]21C` [LE, loteprednol etabonate]: the RI in data set [1] (LE 1 mg/ml in CMHA-S hydrogel) is 1.3355; in data set [1] (setting [10]), 1.3354; in data set [1] (LE 5 mg/ml in CMHA-S hydrogel) it was 1.3353. Further, the pH in data set [2] (LE 1 mg/ml in CMHA-S hydrogel) worked out at 7.11; in data set [2] (setting [10]), 7.24; in data set [2] (LE 5 mg/ml in CMHA-S hydrogel), 7.55. The “release from the hydrogel compared to release from PBS” value in data set [5] is “reduced compared to its release from PBS”. Besides, in data set [3], the water solubility entry was “less than 0.001 mg/ml”. For the same compound, the “Viscosity at 2.5 Hz” value in data set [4] (LE 1 mg/ml in CMHA-S hydrogel) is reported as 2.3 Pa · s; in data set [4] (setting [10]), 2.7 Pa · s; in data set [4] (LE 5 mg/ml in CMHA-S hydrogel) it was 3.3 Pa · s.
